How the values were obtained:
[1] = test system: ventricular arrhythmias induced by two-stage ligation of the left anterior descending coronary artery (Harris dog); experiment: Antiarrhythmic activity by coronary ligation in the Harris dog model (i.v. infusion); type: in vivo, dog (adult mongrel); settings: Harris dog, IV infusion, ED is the effective dose required to sustain normal sinus rhythm; for minimal effective dose: Canis lupus familiaris, read-out: Antiarrhythmic ED in Harris Dog
Excerpt: The following examples describe the pharmacological evaluation of the compounds made in accordance with the present invention. In particular, these examples describe the evaluation of antiarrhythmic activity by coronary ligation in the well known Harris dog model. Ventricular arrhythmias were induced in adult mongrel dogs (10-15 kg) of either sex by two-stage ligation of the left anterior descending coronary artery. […] The test compound in saline was infused intravenously at a cumulative rate of […] to 1.2 mg/kg/min (base) unitl normal sinus rhythm or toxicity occurred. Normal sinus rhythm was defined as 90-100% normal complexes over a 5 min period.

Guinea Pig Ileum = experiment: In vitro evaluation of anticholinergic activity in the isolated guinea pig ileum; set-up: species or system guinea pig (male Hartley); settings: 4 mg/L, inhibition of field-stimulated contractile tension; for inhibition at 4 µg/mL: Cavia porcellus, read-out: Anticholinergic Inhibition of Guinea Pig Ileum (% inhibition at 4 mg/L)
Protocol: The following examples describe the in vitro evaluation of anticholinergic activity in the isolated guinea pig ileum. Fasted, male Hartley guinea pigs (300-400 g) were killed by a blow to the head. […] One end of the ileal strip was impaled onto a platinum wire electrode; and the other end was tied to a stationary glass rod. Basal tension was set at 0.1-0.3 g and peak developed tension in response to field stimulation (100-150 V, 10 msec pulse duration, 0.2 Hz) was measured with a tension transducer.

[2] = test system: ventricular arrhythmias induced by ouabain (Ouabain dog); experiment: Antiarrhythmic activity in the Ouabain dog model (i.v. infusion); type: in vivo; settings: Ouabain dog, IV infusion, ED is the effective dose required to sustain normal sinus rhythm; for minimal effective dose: Canis lupus familiaris, read-out: Antiarrhythmic ED in Ouabain Dog
Protocol: The following examples describe the pharmacological evaluation of the compounds in accordance with the present invention. In particular, these examples describe the evaluation of antiarrhythmic activity in the Oubain dog model. […] The test compound was infused intravenously in saline at a rate of about 0.3 to about 5 mg/kg/min until normal sinus rhythm or toxicity occurred. Normal sinus rhythm was defined as 90-100% normal complexes over a 5 minute period.

Compound | minimal effective dose [2] [mg/kg] | inhibition at 4 µg/mL (Guinea Pig Ileum) [%] | further results
2,6-bis(pyrrolidinylmethyl)-4-benzyl-phenol [XXXVI] |  |  | Antiarrhythmic ED in Harris Dog [1]: low activity; Anticholinergic Inhibition of Guinea Pig Ileum (% inhibition at 4 mg/L) (Guinea Pig Ileum): 14%
Oc1c(CN2CCCC2)cc(OCc2ccccc2)cc1CN1CCCC1 [Example I, 4-benzyloxy-2,6-bis(pyrrolidinylmethyl)phenol] | 1.5 | 62 | minimal effective dose [1]: 4.5 mg/kg
O=C(c1ccccc1)c1cc(CN2CCCC2)c(O)c(CN2CCCC2)c1 [Example II, 4-hydroxy-3,5-bis(pyrrolidinylmethyl)benzophenone] | 1.9 | 9 | minimal effective dose [1]: 11 mg/kg
O=C(Nc1cc(CN2CCCC2)c(O)c(CN2CCCC2)c1)c1ccccc1 [Example III, N-benzoyl-3,5-bis(N-pyrrolidinylmethyl)-4-hydroxyaniline] | 3.4 | 35 | minimal effective dose [1]: 5 mg/kg
O=C(Nc1cc(CN2CCCC2)c(O)c(CN2CCCC2)c1)c1ccccc1Cl [Example X, N--(2-chlorobenzoyl)-3,5,-bis(N--pyrrolidinylmethyl)-4-hydroxyaniline] | 5.8 | 0 | 
O=C(Nc1cc(CN2CCCC2)c(O)c(CN2CCCC2)c1)c1cccs1 [Example XX, N--(2-thiophenecarbonyl)-3,5-bis(N--pyrrolidinylmethyl)-4-hydroxyaniline] | 1.9 | 4 | 
O=C(NCc1cc(CN2CCCC2)c(O)c(CN2CCCC2)c1)c1ccccc1 [Example XXII, N-(benzoyl)-3,5-bis(pyrrolidinylmethyl)-4-hydroxybenzylamine] | 3 | 32 | 
CC(=O)Nc1cc(CN2CCCC2)c(O)c(CN2CCCC2)c1 [Example XXIX, 3,5-bis(N-pyrrolidinylmethyl)-4-hydroxyacetanilide] |  |  | Antiarrhythmic ED in Harris Dog [1]: inactive
O=C(Cc1cccs1)Nc1cc(CN2CCCC2)c(O)c(CN2CCCC2)c1 [Example XXI] |  | 13 | Antiarrhythmic ED in Ouabain Dog [2]: low activity
Nc1cc(CN2CCCC2)c(O)c(CN2CCCC2)c1 [Example XXX, 3,5-bis(N-pyrrolidinylmethyl)-4-hydroxyaniline] |  | 3 | Antiarrhythmic ED in Harris Dog [1]: inactive
O=C(Nc1cc(CN2CCOCC2)c(O)c(CN2CCOCC2)c1)c1ccccc1 [Example XXXI, N-(benzoy)3,5-bis(morpholinomethyl)-4-hydroxyaniline] | 16.5 | 37 | 
O=C(Nc1cc(CN2CCCCC2)c(O)c(CN2CCCCC2)c1)c1ccccc1 [Example XXXII, N-(benzoyl)3,5-bis(piperidinylmethyl)-4-hydroxyaniline] | 11 | 33 | 
O=C(Nc1ccccc1)c1cc(CN2CCCC2)c(O)c(CN2CCCC2)c1 [Example XXXIII, N-([3,5-bis(pyrrolidinylmethyl)-4-hydroxy]benzoyl)-aniline] | 3.5 |  | 
O=C(Nc1cc(CN2CCCC2)c(O)c(CN2CCCC2)c1)c1ccc(Cl)cc1 [IV, N--(4-chlorobenzoyl)-3,5,-bis(N--pyrrolidinylmethyl)-4-hydroxyaniline] | 1.5 | 49 | minimal effective dose [1]: 7 mg/kg
O=C(Nc1cc(CN2CCCC2)c(O)c(CN2CCCC2)c1)c1cccc(C(F)(F)F)c1 [IX, N--(3-trifluoromethylbenzoyl)-3,5,-bis(N--pyrrolidinylmethyl)-4-hydroxyaniline] | 2.25 | 62 | 
Cc1cccc(C)c1C(=O)Nc1cc(CN2CCCC2)c(O)c(CN2CCCC2)c1 [IXX, N--(2,6,dimethylbenzoyl)-3,5,-bis(N--pyrrolidinylmethyl)-4-hydroxyaniline] | 4.3 | 15 | 
Cc1ccc(C(=O)Nc2cc(CN3CCCC3)c(O)c(CN3CCCC3)c2)cc1 [V, N--(4-methylbenzoyl)-3,5,-bis(N--pyrrolidinylmethyl)-4-hydroxyaniline] | 3 | 22 | minimal effective dose [1]: 15 mg/kg
O=C(Nc1cc(CN2CCCC2)c(O)c(CN2CCCC2)c1)c1ccc(Cl)cc1Cl [VI, N--(2,4,dichorobenzoyl)-3,5,-bis(N--pyrrolidinylmethyl)-4-hydroxyaniline] |  | 11 | Antiarrhythmic ED in Ouabain Dog [2]: low activity

Compound | minimal effective dose [2] [mg/kg] | inhibition at 4 µg/mL (Guinea Pig Ileum) [%] | further results
O=C(Nc1cc(CN2CCCC2)c(O)c(CN2CCCC2)c1)c1ccc([N+](=O)[O-])cc1 [VII, N--(4-nitrobenzoyl)-3,5,-bis(N--pyrrolidinylmethyl)-4-hydroxyaniline] | 11 | 24 | 
COc1ccc(C(=O)Nc2cc(CN3CCCC3)c(O)c(CN3CCCC3)c2)cc1 [VIII, N--(4-methoxybenzoyl)-3,5,-bis(N--pyrrolidinylmethyl)-4-hydroxyaniline] | 7.2 | 24 | 
O=C(Nc1cc(CN2CCCC2)c(O)c(CN2CCCC2)c1)c1cccc(Cl)c1 [XI, N--(3-chlorobenzoyl)-3,5,-bis(N--pyrrolidinylmethyl)-4-hydroxyaniline] | 3.75 | 37 | 
O=C(Nc1cc(CN2CCCC2)c(O)c(CN2CCCC2)c1)c1ccccc1C(F)(F)F [XII, N--(2-trifluoromethylbenzoyl)-3,5,-bis(N--pyrrolidinylmethyl)-4-hydroxyaniline] | 6.2 | 0 | 
COc1ccccc1C(=O)Nc1cc(CN2CCCC2)c(O)c(CN2CCCC2)c1 [XIV, N--(2-methoxybenzoyl)-3,5,-bis(N--pyrrolidinylmethyl)-4-hydroxyaniline] | 3 | 31 | 
Cc1cccc(C(=O)Nc2cc(CN3CCCC3)c(O)c(CN3CCCC3)c2)c1 [XV, N--(3-methylbenzoyl)-3,5,-bis(N--pyrrolidinylmethyl)-4-hydroxyaniline] | 5.3 | 32 | 
Cc1ccccc1C(=O)Nc1cc(CN2CCCC2)c(O)c(CN2CCCC2)c1 [XVI, N--(2-methylbenzoyl)-3,5,-bis(N--pyrrolidinylmethyl)-4-hydroxyaniline] | 2 | 9.4 | 
O=C(Nc1cc(CN2CCCC2)c(O)c(CN2CCCC2)c1)c1c(Cl)cccc1Cl [XVII, N--(2,6,dichlorobenzoyl)-3,5,-bis(N--pyrrolidinylmethyl)-4-hydroxyaniline] | 2 | 14.3 | 
COc1cc(C(=O)Nc2cc(CN3CCCC3)c(O)c(CN3CCCC3)c2)cc(OC)c1OC [XVIII] |  | 5.9 | Antiarrhythmic ED in Ouabain Dog [2]: inactive
O=C(NCc1cc(CN2CCCC2)c(O)c(CN2CCCC2)c1)c1ccc(Cl)cc1 [XXIII, N--(4-chlorobenzoyl)-3,5-bis(pyrrolidinylmethyl)-4-hydroxybenzylamine] | 3.8 | 56 | 
O=C(NCc1cc(CN2CCCC2)c(O)c(CN2CCCC2)c1)c1ccccc1C(F)(F)F [XXIV, N--(2-trifluoromethylbenzoyl)-3,5-bis(pyrrolidinylmethyl)-4-hydroxybenzylamine] | 1.7 | 8.5 | 
O=C(NCc1cc(CN2CCCC2)c(O)c(CN2CCCC2)c1)c1cccc(C(F)(F)F)c1 [XXV, N--(3-trifluoromethylbenzoyl)-3,5-bis(pyrrolidinylmethyl)-4-hydroxybenzylamine] | 5.5 | 72 | 
O=C(NCc1cc(CN2CCCC2)c(O)c(CN2CCCC2)c1)c1ccccc1Cl [XXVI, N--(2-chlorobenzoyl)-3,5-bis(pyrrolidinylmethyl)-4-hydroxybenzylamine] | 2.3 | 18 | 
O=C(NCc1cc(CN2CCCC2)c(O)c(CN2CCCC2)c1)c1cccc(Cl)c1 [XXVII, N--(3-chlorobenzoyl)-3,5-bis(pyrrolidinylmethyl)-4-hydroxybenzylamine] | 9.8 | 78 | 
Nc1ccc(C(=O)Nc2cc(CN3CCCC3)c(O)c(CN3CCCC3)c2)cc1 [XXVIII, N-(4-aminobenzoyl)-3,5-bis(pyrrolidinylmethyl)-4-hydroxyaniline] | 4.5 | 0 | 
CN(C(=O)c1ccccc1)c1cc(CN2CCCC2)c(O)c(CN2CCCC2)c1 [XXXIV] | 16 | 16 | 
O=C(NCc1cc(CN2CCCC2)c(O)c(CN2CCCC2)c1)c1ccc(C(F)(F)F)cc1 [XXXV, N-(4-trifluoromethyl)-3,5-bis(pyrrolidinylmethyl)-4-hydroxybenzylamine] | 4.5 | 49 | 

— patent US4755527A, “Aryl substituted aminomethyl benzene derivatives” (priority 1985, dated 1988)
